Values of other authors as cited in patent US9744157B2, “Combinations of solifenacin and salivary stimulants for the treatment of overactive bladder” (TheraVida, Inc., priority 2011, dated 2017).

Test system: saliva output
Settings: 5 mg of pilocarpine

CC[C@@H]1C(=O)OC[C@@H]1Cc1cncn1C [pilocarpine]
time of maximum saliva output after administration: about 30 minutes
